Assay results from the supplement of paper PMC10307832.

Assays:
Assay in all cases: relative viability (nuclei count vs DMSO), 5 days (fraction); higher = more cells survive
ChaGo-K-1 = test system: ChaGo-K-1
Procedure, shortened: (§1)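 One day after seeding in 1536-well plates, lung cancer cell lines were dosed by pin tool. Dosing was either single-drug or a fixed anchor-drug dose plus five library-drug doses (not always all listed) in √10 steps. After 5 days, nuclei were stained in one fix-and-stain step and counted on 4× images, and relative viability is the nuclei count of treated wells over that of vehicle wells, given as the median of duplicate plates.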

NCI-H1299 = test system: NCI-H1299
Procedure, shortened: as §1

A549 = test system: A549
Procedure, shortened: as §1

EBC-1 = test system: EBC-1
Procedure, shortened: as §1

IA-LM = test system: IA-LM
Procedure, shortened: as §1

SK-MES-1 = test system: SK-MES-1
Procedure, shortened: as §1

NCI-H1703 = test system: NCI-H1703
Procedure, shortened: as §1

NCI-H1651 = test system: NCI-H1651
Procedure, shortened: as §1

Calu-6 = test system: Calu-6
Procedure, shortened: as §1

Structure (SMILES): CC1(C)CCC(c2ccc(Cl)cc2)=C(CN2CCN(c3ccc(C(=O)NS(=O)(=O)c4ccc(N[C@H](CCN5CCOCC5)CSc5ccccc5)c(S(=O)(=O)C(F)(F)F)c4)cc3)CC2)C1 [Navitoclax] + C[C@@H](Oc1cc(-c2cnn(C3CCNCC3)c2)cnc1N)c1c(Cl)ccc(F)c1Cl [Crizotinib] (partner 1 µM)
- relative viability (ChaGo-K-1; first compound 0.005 µM): 1.1
- relative viability (ChaGo-K-1; first compound 0.01581 µM): 1.11
- relative viability (ChaGo-K-1; first compound 0.05 µM): 0.601
- relative viability (ChaGo-K-1; first compound 0.1581 µM): 1.1
- relative viability (ChaGo-K-1; first compound 0.5 µM): 1.19
- relative viability (NCI-H1299; first compound 0.005 µM): 0.99
- relative viability (NCI-H1299; first compound 0.01581 µM): 0.99
- relative viability (NCI-H1299; first compound 0.05 µM): 1.02
- relative viability (NCI-H1299; first compound 0.1581 µM): 0.926
- relative viability (NCI-H1299; first compound 0.5 µM): 0.981
- relative viability (A549; first compound 0.005 µM): 0.756
- relative viability (A549; first compound 0.01581 µM): 0.805
- relative viability (A549; first compound 0.05 µM): 0.825
- relative viability (A549; first compound 0.1581 µM): 0.729
- relative viability (A549; first compound 0.5 µM): 0.744
- relative viability (EBC-1; first compound 0.005 µM): 0.178
- relative viability (EBC-1; first compound 0.01581 µM): 0.227
- relative viability (EBC-1; first compound 0.05 µM): 0.192
- relative viability (EBC-1; first compound 0.1581 µM): 0.195
- relative viability (EBC-1; first compound 0.5 µM): 0.204
- relative viability (IA-LM; first compound 0.005 µM): 0.861
- relative viability (IA-LM; first compound 0.01581 µM): 0.636
- relative viability (IA-LM; first compound 0.05 µM): 0.875
- relative viability (IA-LM; first compound 0.1581 µM): 0.944
- relative viability (IA-LM; first compound 0.5 µM): 0.908
- relative viability (SK-MES-1; first compound 0.005 µM): 0.953
- relative viability (SK-MES-1; first compound 0.01581 µM): 1.07
- relative viability (SK-MES-1; first compound 0.05 µM): 1.08
- relative viability (SK-MES-1; first compound 0.1581 µM): 0.953
- relative viability (SK-MES-1; first compound 0.5 µM): 0.978
- relative viability (NCI-H1703; first compound 0.005 µM): 0.73
- relative viability (NCI-H1703; first compound 0.01581 µM): 0.602
- relative viability (NCI-H1703; first compound 0.05 µM): 1.22
- relative viability (NCI-H1703; first compound 0.1581 µM): 0.726
- relative viability (NCI-H1703; first compound 0.5 µM): 0.754
- relative viability (NCI-H1651; first compound 0.005 µM): 0.877
- relative viability (NCI-H1651; first compound 0.01581 µM): 0.939
- relative viability (NCI-H1651; first compound 0.05 µM): 0.78
- relative viability (NCI-H1651; first compound 0.1581 µM): 0.821
- relative viability (NCI-H1651; first compound 0.5 µM): 0.839
- relative viability (Calu-6; first compound 0.005 µM): 0.843
- relative viability (Calu-6; first compound 0.01581 µM): 0.812
- relative viability (Calu-6; first compound 0.05 µM): 0.894
- relative viability (Calu-6; first compound 0.1581 µM): 0.741
- relative viability (Calu-6; first compound 0.5 µM): 0.78

Structure (SMILES): NC(=O)Nc1cc(-c2cccc(F)c2)sc1C(=O)N[C@H]1CCCNC1 [AZD7762] + C[C@@H](Oc1cc(-c2cnn(C3CCNCC3)c2)cnc1N)c1c(Cl)ccc(F)c1Cl [Crizotinib] (partner 1 µM)
- relative viability (ChaGo-K-1; first compound 0.01 µM): 1.21
- relative viability (ChaGo-K-1; first compound 0.03162 µM): 1.04
- relative viability (ChaGo-K-1; first compound 0.1 µM): 1.14
- relative viability (ChaGo-K-1; first compound 0.3162 µM): 1.07
- relative viability (ChaGo-K-1; first compound 1 µM): 0.64
- relative viability (NCI-H1299; first compound 0.01 µM): 0.966
- relative viability (NCI-H1299; first compound 0.03162 µM): 0.975
- relative viability (NCI-H1299; first compound 0.1 µM): 0.974
- relative viability (NCI-H1299; first compound 0.3162 µM): 0.826
- relative viability (NCI-H1299; first compound 1 µM): 0.307
- relative viability (A549; first compound 0.01 µM): 0.795
- relative viability (A549; first compound 0.03162 µM): 0.821
- relative viability (A549; first compound 0.1 µM): 0.775
- relative viability (A549; first compound 0.3162 µM): 0.424
- relative viability (A549; first compound 1 µM): 0.0696
- relative viability (EBC-1; first compound 0.01 µM): 0.199
- relative viability (EBC-1; first compound 0.03162 µM): 0.209
- relative viability (EBC-1; first compound 0.1 µM): 0.167
- relative viability (EBC-1; first compound 0.3162 µM): 0.187
- relative viability (EBC-1; first compound 1 µM): 0.167
- relative viability (IA-LM; first compound 0.01 µM): 1.04
- relative viability (IA-LM; first compound 0.03162 µM): 0.907
- relative viability (IA-LM; first compound 0.1 µM): 1.26
- relative viability (IA-LM; first compound 0.3162 µM): 0.858
- relative viability (IA-LM; first compound 1 µM): 0.277
- relative viability (SK-MES-1; first compound 0.01 µM): 1.05
- relative viability (SK-MES-1; first compound 0.03162 µM): 0.966
- relative viability (SK-MES-1; first compound 0.1 µM): 1.08
- relative viability (SK-MES-1; first compound 0.3162 µM): 0.999
- relative viability (SK-MES-1; first compound 1 µM): 0.614
- relative viability (NCI-H1703; first compound 0.01 µM): 0.314
- relative viability (NCI-H1703; first compound 0.03162 µM): 0.169
- relative viability (NCI-H1703; first compound 0.1 µM): 0.136
- relative viability (NCI-H1703; first compound 0.3162 µM): 0.0849
- relative viability (NCI-H1703; first compound 1 µM): 0.105
- relative viability (NCI-H1651; first compound 0.01 µM): 1
- relative viability (NCI-H1651; first compound 0.03162 µM): 0.87
- relative viability (NCI-H1651; first compound 0.1 µM): 0.894
- relative viability (NCI-H1651; first compound 0.3162 µM): 0.862
- relative viability (NCI-H1651; first compound 1 µM): 0.714
- relative viability (Calu-6; first compound 0.01 µM): 0.897
- relative viability (Calu-6; first compound 0.03162 µM): 0.813
- relative viability (Calu-6; first compound 0.1 µM): 0.651
- relative viability (Calu-6; first compound 0.3162 µM): 0.162
- relative viability (Calu-6; first compound 1 µM): 0.0886

Structure (SMILES): O=C(O)c1ccc(-c2c[nH]c3ncc(-c4ccccc4)cc23)cc1C1CCCC1 + C[C@@H](Oc1cc(-c2cnn(C3CCNCC3)c2)cnc1N)c1c(Cl)ccc(F)c1Cl [Crizotinib] (partner 1 µM)
- relative viability (ChaGo-K-1; first compound 0.04 µM): 1.11
- relative viability (ChaGo-K-1; first compound 0.1265 µM): 1.1
- relative viability (ChaGo-K-1; first compound 0.4 µM): 1.04
- relative viability (ChaGo-K-1; first compound 1.265 µM): 0.846
- relative viability (NCI-H1299; first compound 0.04 µM): 0.966
- relative viability (NCI-H1299; first compound 0.1265 µM): 0.952
- relative viability (NCI-H1299; first compound 0.4 µM): 0.916
- relative viability (NCI-H1299; first compound 1.265 µM): 0.868
- relative viability (A549; first compound 0.04 µM): 0.795
- relative viability (A549; first compound 0.1265 µM): 0.776
- relative viability (A549; first compound 0.4 µM): 0.668
- relative viability (A549; first compound 1.265 µM): 0.44
- relative viability (EBC-1; first compound 0.04 µM): 0.185
- relative viability (EBC-1; first compound 0.1265 µM): 0.217
- relative viability (EBC-1; first compound 0.4 µM): 0.185
- relative viability (EBC-1; first compound 1.265 µM): 0.191
- relative viability (IA-LM; first compound 0.04 µM): 0.698
- relative viability (IA-LM; first compound 0.1265 µM): 0.772
- relative viability (IA-LM; first compound 0.4 µM): 0.893
- relative viability (IA-LM; first compound 1.265 µM): 0.835
- relative viability (SK-MES-1; first compound 0.04 µM): 0.942
- relative viability (SK-MES-1; first compound 0.1265 µM): 1.01
- relative viability (SK-MES-1; first compound 0.4 µM): 0.953
- relative viability (SK-MES-1; first compound 1.265 µM): 0.774
- relative viability (NCI-H1703; first compound 0.04 µM): 0.482
- relative viability (NCI-H1703; first compound 0.1265 µM): 0.85
- relative viability (NCI-H1703; first compound 0.4 µM): 0.669
- relative viability (NCI-H1703; first compound 1.265 µM): 0.647
- relative viability (NCI-H1651; first compound 0.04 µM): 0.852
- relative viability (NCI-H1651; first compound 0.1265 µM): 0.929
- relative viability (NCI-H1651; first compound 0.4 µM): 0.822
- relative viability (NCI-H1651; first compound 1.265 µM): 0.742
- relative viability (Calu-6; first compound 0.04 µM): 0.828
- relative viability (Calu-6; first compound 0.1265 µM): 0.777
- relative viability (Calu-6; first compound 0.4 µM): 0.72
- relative viability (Calu-6; first compound 1.265 µM): 0.636
